Source: patent US10907158B2, “Antisense antibacterial compounds and methods” (priority 2015, dated 2021)

Tests used:
K. pneumoniae = experiment: MIC of meropenem in various concentrations of KPC PPMO; settings: Klebsiella pneumoniae, read-out: MIC of meropenem
NDM-1 strains = experiment: MIC of meropenem in various concentrations of NDM-1 PPMO; assay type: cell-based, K. pneumoniae; settings: Klebsiella pneumoniae; meropenem without PPMO
E. coli BW25113 = assay type: cell-based; settings: Pip/Tazo alone, 18 h, MHII
Pseudomonas aeruginosa = settings: 18 hours
Description: Strains were grown on MSEC biofilm plates for 18 hours in the presence of PMBN at 2 μg/ml and the PPMO, a scrambled PPMO or nothing. The numbers in each cell represent the concentration of PPMO that reduced biofilm by 50% or greater.
Pseudomonas biofilms were grown in the presence or absence of PPMOs (as indicated). Biofilms were grown for 18 hours and then stained with crystal violet. Three strains were tested with multiple PPMO doses as shown. Percent reduction compared to no PPMO control is shown.
Polymyxin B nonapeptide (PMBN) was used at sub-inhibitory concentrations to enhance delivery of PPMOs in Pseudomonas.

For `C[C@@H](O)[C@H]1C(=O)N2C(C(=O)O)=C(S[C@@H]3CN[C@H](C(=O)N(C)C)C3)[C@H](C)[C@H]12` [meropenem], the MIC (K. pneumoniae) was 32 mg/L and the MIC (NDM-1 strains) was 64 mg/L.

In the case of Piperacillin/Tazobactam [Pip/Tazo], the MIC (E. coli BW25113) is reported as 4 mg/L.

In the case of Polymyxin B nonapeptide [PMBN], the “effect on biofilm formation” value (Pseudomonas aeruginosa) is reported as “did not significantly alter biofilm formation”.
